Measured values: PubChem BioAssay AID1963848 (Molecular Pharmacology Branch, DTP, NCI, 2024)

Test system: 379773-124-R-J2-PDC spheroid viability
Experiment: Anticancer human tumor 379773-124-R-J2-PDC patient-derived endometrial carcinoma cell line growth inhibition [POLQ]
Conditions: spheroids with HUVEC and MSC; for IC50: curve of first compound; for viability, T/C: stronger effect = lower value
In short: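 Three-cell-type spheroids modelling solid tumor plus stroma served as the readout system; POL inhibitors were tested individually and in combination, concentration ranges set by clinical Cmax where known.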

[1] = second compound 0.0316 µM, first compound 0.0316 µM
[2] = second compound 0.0316 µM, first compound 0.1 µM
[3] = second compound 0.0316 µM, first compound 0.316 µM
[4] = second compound 0.0316 µM, first compound 1 µM
[5] = second compound 0.0316 µM, first compound 3.16 µM
[6] = second compound 0.0316 µM, first compound 10 µM
[7] = second compound 0.1 µM, first compound 0.0316 µM
[8] = second compound 0.1 µM, first compound 0.1 µM
[9] = second compound 0.1 µM, first compound 0.316 µM
[10] = second compound 0.1 µM, first compound 1 µM
[11] = second compound 0.1 µM, first compound 3.16 µM
[12] = second compound 0.1 µM, first compound 10 µM
[13] = second compound 0.316 µM, first compound 0.0316 µM
[14] = second compound 0.316 µM, first compound 0.1 µM
[15] = second compound 0.316 µM, first compound 0.316 µM
[16] = second compound 0.316 µM, first compound 1 µM
[17] = second compound 0.316 µM, first compound 3.16 µM
[18] = second compound 0.316 µM, first compound 10 µM
[19] = second compound 1 µM, first compound 0.0316 µM
[20] = second compound 1 µM, first compound 0.1 µM
[21] = second compound 1 µM, first compound 0.316 µM
[22] = second compound 1 µM, first compound 1 µM
[23] = second compound 1 µM, first compound 3.16 µM
[24] = second compound 1 µM, first compound 10 µM
[25] = second compound 3.16 µM, first compound 0.0316 µM
[26] = second compound 3.16 µM, first compound 0.1 µM
[27] = second compound 3.16 µM, first compound 0.316 µM
[28] = second compound 3.16 µM, first compound 1 µM
[29] = second compound 3.16 µM, first compound 3.16 µM
[30] = second compound 3.16 µM, first compound 10 µM
[31] = second compound 10 µM, first compound 0.0316 µM
[32] = second compound 10 µM, first compound 0.1 µM
[33] = second compound 10 µM, first compound 0.316 µM
[34] = second compound 10 µM, first compound 1 µM
[35] = second compound 10 µM, first compound 3.16 µM
[36] = second compound 10 µM, first compound 10 µM
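Further: spheroids exposed to drugs for seven days before readout.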
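Wherever viability, T/C is given: percent viability relative to DMSO vehicle control taken as 100%.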

Compound: C#Cc1c(F)ccc2cc(O)cc(-c3ncc4c(N5CC6CCC(C5)N6)nc(OCC56CCCN5CC(F)C6)nc4c3F)c12 (stereo not drawn) + COC1C(OC(N)=O)C(O)C(Oc2ccc3c(O)c(NC(=O)c4ccc(O)c(CC=C(C)C)c4)c(=O)oc3c2C)OC1(C)C
- IC50 (second compound 0.0316 µM): > 10 µM
- IC50 (second compound 0.1 µM): > 10 µM
- IC50 (second compound 0.316 µM): > 10 µM
- IC50 (second compound 1 µM): > 10 µM
- IC50 (second compound 3.16 µM): > 10 µM
- IC50 (second compound 10 µM): > 10 µM
- viability, T/C [1]: 89%
- viability, T/C [2]: 85.8%
- viability, T/C [3]: 84.4%
- viability, T/C [4]: 81%
- viability, T/C [5]: 97.9%
- viability, T/C [6]: 88.6%
- viability, T/C [7]: 95.8%
- viability, T/C [8]: 78.2%
- viability, T/C [9]: 92.1%
- viability, T/C [10]: 75.5%
- viability, T/C [11]: 77.4%
- viability, T/C [12]: 95%
- viability, T/C [13]: 91%
- viability, T/C [14]: 83.9%
- viability, T/C [15]: 79.7%
- viability, T/C [16]: 84.5%
- viability, T/C [17]: 87.6%
- viability, T/C [18]: 93.4%
- viability, T/C [19]: 80.8%
- viability, T/C [20]: 84.3%
- viability, T/C [21]: 89.9%
- viability, T/C [22]: 86.8%
- viability, T/C [23]: 75%
- viability, T/C [24]: 93.9%
- viability, T/C [25]: 78.5%
- viability, T/C [26]: 81.7%
- viability, T/C [27]: 90.2%
- viability, T/C [28]: 78.5%
- viability, T/C [29]: 89.7%
- viability, T/C [30]: 96.8%
- viability, T/C [31]: 75.3%
- viability, T/C [32]: 85.8%
- viability, T/C [33]: 103%
- viability, T/C [34]: 79.4%
- viability, T/C [35]: 75.8%
- viability, T/C [36]: 106%

Compound: C=CC(=O)N1CCN(c2nc(=O)n(-c3c(C)ccnc3C(C)C)c3nc(-c4c(O)cccc4F)c(F)cc23)C(C)C1 (stereo not drawn) + COC1C(OC(N)=O)C(O)C(Oc2ccc3c(O)c(NC(=O)c4ccc(O)c(CC=C(C)C)c4)c(=O)oc3c2C)OC1(C)C
- IC50 (second compound 0.0316 µM): > 10 µM
- IC50 (second compound 0.1 µM): > 10 µM
- IC50 (second compound 0.316 µM): > 10 µM
- IC50 (second compound 1 µM): > 10 µM
- IC50 (second compound 3.16 µM): > 10 µM
- IC50 (second compound 10 µM): > 10 µM
- viability, T/C [1]: 87.3%
- viability, T/C [2]: 78.7%
- viability, T/C [3]: 91.3%
- viability, T/C [4]: 85.1%
- viability, T/C [5]: 85.7%
- viability, T/C [6]: 72.1%
- viability, T/C [7]: 87.3%
- viability, T/C [8]: 87.2%
- viability, T/C [9]: 82.2%
- viability, T/C [10]: 91.1%
- viability, T/C [11]: 87.9%
- viability, T/C [12]: 95%
- viability, T/C [13]: 91.2%
- viability, T/C [14]: 86.7%
- viability, T/C [15]: 86.8%
- viability, T/C [16]: 85.1%
- viability, T/C [17]: 79.3%
- viability, T/C [18]: 82.6%
- viability, T/C [19]: 92.1%
- viability, T/C [20]: 94.8%
- viability, T/C [21]: 93.9%
- viability, T/C [22]: 88.8%
- viability, T/C [23]: 73.8%
- viability, T/C [24]: 95.8%
- viability, T/C [25]: 73.2%
- viability, T/C [26]: 84.6%
- viability, T/C [27]: 82.9%
- viability, T/C [28]: 85%
- viability, T/C [29]: 85.9%
- viability, T/C [30]: 72.1%
- viability, T/C [31]: 91.1%
- viability, T/C [32]: 85.1%
- viability, T/C [33]: 81.5%
- viability, T/C [34]: 80.5%
- viability, T/C [35]: 86%
- viability, T/C [36]: 89.4%

Compound: CCc1cc2c(N3CCc4c(cc(Cn5ccnc5)cc4-c4cn(C)nc4C(F)(F)F)C3=O)cc(C)nc2c(OC)n1 + COC1C(OC(N)=O)C(O)C(Oc2ccc3c(O)c(NC(=O)c4ccc(O)c(CC=C(C)C)c4)c(=O)oc3c2C)OC1(C)C
- IC50 (second compound 0.0316 µM): 1.22 µM
- IC50 (second compound 0.1 µM): 2.13 µM
- IC50 (second compound 0.316 µM): 3.32 µM
- IC50 (second compound 1 µM): 1.5 µM
- IC50 (second compound 3.16 µM): 2.07 µM
- IC50 (second compound 10 µM): 3.15 µM
- viability, T/C [1]: 68.2%
- viability, T/C [2]: 63.2%
- viability, T/C [3]: 53.7%
- viability, T/C [4]: 53%
- viability, T/C [5]: 45.5%
- viability, T/C [6]: 48.5%
- viability, T/C [7]: 62.2%
- viability, T/C [8]: 62.3%
- viability, T/C [9]: 58.1%
- viability, T/C [10]: 51.3%
- viability, T/C [11]: 49.4%
- viability, T/C [12]: 41.7%
- viability, T/C [13]: 68.5%
- viability, T/C [14]: 63.6%
- viability, T/C [15]: 63.8%
- viability, T/C [16]: 52.6%
- viability, T/C [17]: 49.2%
- viability, T/C [18]: 46.3%
- viability, T/C [19]: 66.4%
- viability, T/C [20]: 69.4%
- viability, T/C [21]: 58.1%
- viability, T/C [22]: 54.6%
- viability, T/C [23]: 43.8%
- viability, T/C [24]: 37.8%
- viability, T/C [25]: 68.4%
- viability, T/C [26]: 59.6%
- viability, T/C [27]: 50.1%
- viability, T/C [28]: 55.8%
- viability, T/C [29]: 50%
- viability, T/C [30]: 46.5%
- viability, T/C [31]: 77%
- viability, T/C [32]: 58.7%
- viability, T/C [33]: 61.5%
- viability, T/C [34]: 55.7%
- viability, T/C [35]: 54.9%
- viability, T/C [36]: 42.2%

Compound: COc1cc2cc(C(=O)CCC(=O)O)sc2cc1OC + COC1C(OC(N)=O)C(O)C(Oc2ccc3c(O)c(NC(=O)c4ccc(O)c(CC=C(C)C)c4)c(=O)oc3c2C)OC1(C)C
- IC50 (second compound 0.0316 µM): > 10 µM
- IC50 (second compound 0.1 µM): > 10 µM
- IC50 (second compound 0.316 µM): > 10 µM
- IC50 (second compound 1 µM): > 10 µM
- IC50 (second compound 3.16 µM): > 10 µM
- IC50 (second compound 10 µM): > 10 µM
- viability, T/C [1]: 85.9%
- viability, T/C [2]: 75.8%
- viability, T/C [3]: 92.1%
- viability, T/C [4]: 82.5%
- viability, T/C [5]: 78%
- viability, T/C [6]: 91.4%
- viability, T/C [7]: 88.2%
- viability, T/C [8]: 82%
- viability, T/C [9]: 90.2%
- viability, T/C [10]: 83.3%
- viability, T/C [11]: 85.5%
- viability, T/C [12]: 96.6%
- viability, T/C [13]: 96%
- viability, T/C [14]: 83.6%
- viability, T/C [15]: 76.5%
- viability, T/C [16]: 82.1%
- viability, T/C [17]: 81%
- viability, T/C [18]: 84.6%
- viability, T/C [19]: 82.7%
- viability, T/C [20]: 84.1%
- viability, T/C [21]: 90.9%
- viability, T/C [22]: 89%
- viability, T/C [23]: 90%
- viability, T/C [24]: 78.2%
- viability, T/C [25]: 99.9%
- viability, T/C [26]: 82.5%
- viability, T/C [27]: 78.1%
- viability, T/C [28]: 78.7%
- viability, T/C [29]: 90.2%
- viability, T/C [30]: 85.3%
- viability, T/C [31]: 92.8%
- viability, T/C [32]: 86.1%
- viability, T/C [33]: 86%
- viability, T/C [34]: 69.2%
- viability, T/C [35]: 86.1%
- viability, T/C [36]: 95.4%
